Assay results reported in ChEMBL document CHEMBL5241114, “A comprehensive review of BET-targeting PROTACs for cancer therapy” (Bioorg Med Chem, 2022).

Tests used:
[1] = molecular target: T1, Bromodomain-containing protein 4 (Homo sapiens, UniProt O60885); test: Induction of BRD4 degradation in human SU-DHL-4 measured after 72 hrs; assay type: cell-based
[2] = molecular target: T1, Bromodomain-containing protein 4; test: Induction of BRD4 degradation in human SU-DHL-4 measured after 72 hrs relative to control; assay type: cell-based
SUD4 = test: Antiproliferative activity against human SU-DHL-4 cells assessed as reduction in cell viability measured after 48 hrs by MTT assay; assay type: functional
[3] = molecular target: T1, Bromodomain-containing protein 4; test: Induction of BRD4 degradation in human HCT-116 cells assessed as downregulation of c-Myc expression; assay type: cell-based
[4] = molecular target: T1, Bromodomain-containing protein 4; test: Induction of BRD4 degradation in human HEK293T cells; assay type: cell-based
[5] = molecular target: T1, Bromodomain-containing protein 4; test: Induction of BRD4 degradation in human 231MFP cells; assay type: cell-based; conditions: 231mfp
[6] = molecular target: T1, Bromodomain-containing protein 4; test: Induction of BRD4 degradation in human HEK293T cells at 10 uM measured at 6 hrs relative to control; assay type: cell-based
[7] = molecular target: T1, Bromodomain-containing protein 4; test: Induction of BRD4 degradation in human HAP1 cells; assay type: cell-based
[8] = molecular target: Protein fem-1 homolog B/Folliculin-interacting protein 1 (Homo sapiens, UniProt Q8TF40+Q9UK73); test: Inhibition of FEMIB/FNIP1 interaction in human HEK293T cells; assay type: cell-based
[9] = molecular target: Folliculin-interacting protein 1 (Homo sapiens, UniProt Q8TF40); test: Inhibition of FNIP1 in human HEK293T cells; assay type: cell-based
[10] = molecular target: T1, Bromodomain-containing protein 4; test: Induction of BRD4 degradation in human MV4-11 cells measured after 12 hrs; assay type: cell-based
[11] = molecular target: T1, Bromodomain-containing protein 4; test: Induction of BRD4 degradation in human MV4-11 cells measured after 24 hrs; assay type: cell-based
[12] = molecular target: T1, Bromodomain-containing protein 4; test: Induction of BRD4 degradation in human HD-MB03 cells measured after 12 hrs; assay type: cell-based
[13] = molecular target: T1, Bromodomain-containing protein 4; test: Induction of BRD4 degradation in human HD-MB03 cells at 100 nM measured at 72 hrs relative to control; assay type: cell-based
MV4-11 [14] = test: Cytotoxicity against human MV4-11 cells; assay type: functional, cell-based
MV4-11 [15] = test: Cytotoxicity against human MV4-11 cells measured after 96 hrs; assay type: functional, cell-based; conditions: MV4-11, 96 h
[16] = molecular target: T1, Bromodomain-containing protein 4; test: Induction of BRD4 degradation in human MDA-MB-468 cells at 0.5 uM measured at 48 hrs relative to control; assay type: cell-based
MDA-MB-468 = test: Antiproliferative activity against human MDA-MB-468 cells assessed as cell growth inhibition; assay type: functional
MDA-MB-231 = test: Antiproliferative activity against human MDA-MB-231 cells assessed as cell growth inhibition; assay type: functional

Sequence of Protein fem-1 homolog B/Folliculin-interacting protein 1 (Q8TF40 whole entry): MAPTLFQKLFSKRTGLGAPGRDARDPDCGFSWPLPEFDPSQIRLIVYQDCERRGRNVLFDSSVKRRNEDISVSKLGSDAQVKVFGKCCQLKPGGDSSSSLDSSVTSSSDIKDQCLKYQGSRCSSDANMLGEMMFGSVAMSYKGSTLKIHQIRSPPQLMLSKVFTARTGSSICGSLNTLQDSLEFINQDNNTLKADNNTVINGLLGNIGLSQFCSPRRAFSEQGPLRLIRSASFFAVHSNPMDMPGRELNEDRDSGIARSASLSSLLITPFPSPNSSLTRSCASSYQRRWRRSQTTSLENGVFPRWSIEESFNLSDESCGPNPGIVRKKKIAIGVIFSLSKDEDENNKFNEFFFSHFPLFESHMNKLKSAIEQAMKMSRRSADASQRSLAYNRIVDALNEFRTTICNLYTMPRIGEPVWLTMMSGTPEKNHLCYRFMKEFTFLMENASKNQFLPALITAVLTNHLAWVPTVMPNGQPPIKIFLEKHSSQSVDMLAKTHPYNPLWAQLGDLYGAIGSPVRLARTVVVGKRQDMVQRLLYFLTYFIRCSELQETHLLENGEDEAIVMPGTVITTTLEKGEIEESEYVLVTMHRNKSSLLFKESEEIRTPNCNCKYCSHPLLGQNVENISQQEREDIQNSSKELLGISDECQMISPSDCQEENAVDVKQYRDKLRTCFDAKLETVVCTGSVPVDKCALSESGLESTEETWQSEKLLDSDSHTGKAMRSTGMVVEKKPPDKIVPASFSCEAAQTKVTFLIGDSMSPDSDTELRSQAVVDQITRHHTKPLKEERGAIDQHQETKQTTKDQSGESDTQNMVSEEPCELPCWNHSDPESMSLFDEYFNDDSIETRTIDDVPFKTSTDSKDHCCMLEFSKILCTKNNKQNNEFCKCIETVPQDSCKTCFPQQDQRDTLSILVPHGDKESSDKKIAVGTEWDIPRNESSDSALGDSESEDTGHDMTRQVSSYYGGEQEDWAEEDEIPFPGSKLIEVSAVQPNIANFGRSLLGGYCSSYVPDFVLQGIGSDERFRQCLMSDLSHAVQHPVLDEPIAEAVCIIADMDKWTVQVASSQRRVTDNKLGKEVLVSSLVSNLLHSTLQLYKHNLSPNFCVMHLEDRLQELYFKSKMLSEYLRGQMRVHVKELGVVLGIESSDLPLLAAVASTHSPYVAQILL
Sequence of Protein fem-1 homolog B/Folliculin-interacting protein 1 (Q9UK73 whole entry): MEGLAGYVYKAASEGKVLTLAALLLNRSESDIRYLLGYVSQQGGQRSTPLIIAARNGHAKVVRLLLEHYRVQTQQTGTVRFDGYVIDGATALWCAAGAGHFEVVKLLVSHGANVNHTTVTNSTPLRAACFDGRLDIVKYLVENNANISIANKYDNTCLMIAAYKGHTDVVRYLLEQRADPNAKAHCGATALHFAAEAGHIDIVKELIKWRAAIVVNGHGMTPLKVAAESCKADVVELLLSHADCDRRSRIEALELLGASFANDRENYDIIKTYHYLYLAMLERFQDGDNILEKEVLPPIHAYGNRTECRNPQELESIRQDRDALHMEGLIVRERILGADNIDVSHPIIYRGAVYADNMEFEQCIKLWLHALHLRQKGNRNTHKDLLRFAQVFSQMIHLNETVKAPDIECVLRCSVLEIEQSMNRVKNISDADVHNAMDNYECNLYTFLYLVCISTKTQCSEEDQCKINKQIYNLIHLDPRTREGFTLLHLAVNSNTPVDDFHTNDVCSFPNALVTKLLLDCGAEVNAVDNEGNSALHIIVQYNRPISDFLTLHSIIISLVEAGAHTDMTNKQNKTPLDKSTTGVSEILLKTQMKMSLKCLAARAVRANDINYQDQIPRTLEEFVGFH
Sequence of Folliculin-interacting protein 1 (Q8TF40 whole entry): as the sequence (Q8TF40 whole entry) above

SMILES: Cc1sc2c(c1C)C(c1ccc(Cl)cc1)=N[C@@H](CC(=O)NCCOCCOCCNC(=O)c1cccc(S(=O)(=O)Nc3ccc(C)c4c(C#N)c[nH]c34)c1)c1nnc(C)n1-2
- DC50 [1]: 10800 nM
- Emax [2]: 98%
- GC50 (SUD4): 4640 nM

SMILES: COc1cc(C(=O)NCCOCCOCCOCCNC(=O)C[C@@H]2N=C(c3ccc(Cl)cc3)c3c(sc(C)c3C)-n3c(C)nnc32)ccc1NC(=O)[C@@H]1N[C@@H](CC(C)(C)C)[C@](C#N)(c2ccc(Cl)cc2F)[C@H]1c1cccc(Cl)c1F
- DC50 [3]: 36 nM
- GC50 (SUD4): 25170 nM

SMILES: C#CCCCC(=O)N1CCOc2ccc(N(CCC#N)C(=O)CCl)cc21
- DC50 [4]: 250 nM
- DC50 [5]: 196 nM
- Emax [6]: 94%
- DC50 [7]: 313 nM

SMILES: N#CCCN(C(=O)CCl)c1ccc2c(c1)OCCO2
- IC50 [8]: 2200 nM
- IC50 [9]: 670 nM

SMILES: Cc1sc2c(c1C)C(c1ccc(Cl)cc1)=N[C@@H](CC(=O)NCCCCCNC(=O)COc1ccc(C3CCC(=O)NC3=O)cc1)c1nnc(C)n1-2 (stereo not given in full)
- DC50 [10]: 0.87 nM
- DC50 [11]: 0.16 nM
- DC50 [12]: 24 nM
- Emax [13]: 87%
- IC50 (MV4-11 [14]): 1.83 nM
- IC50 (MV4-11 [15]): 0.003 nM

SMILES: CCOC(=O)C[C@H](c1ccc(C)c(CN2C[C@H](C)Oc3ccccc3S2(=O)=O)c1)c1cc(OCCNC(=O)CNC(=O)C[C@H]2N=C(c3ccc(Cl)cc3)c3c(sc(C)c3C)-n3c(C)nnc32)c2c(c1)nnn2C
- Emax [16]: 80%
- GI50 (MDA-MB-468): 280 nM
- GI50 (MDA-MB-231): 130 nM
